Assay results: PMC10052977, “α,ω-Diacyl-Substituted Analogues of Natural and Unnatural Polyamines: Identification of Potent Bactericides That Selectively Target Bacterial Membranes” (International Journal of Molecular Sciences, 2023)
In brackets after ≈: the same amount, converted by molar mass.

What was measured:
[1] = test system: Acinetobacter baumannii ATCC19606; assay: MIC, CO-ADD broth microdilution; format: cell-based; conditions: mean (n = 2)
[2] = test system: Candida albicans ATCC90028; assay: Antifungal MIC, CO-ADD; format: cell-based; conditions: mean (n = 2)
Method: (§1) For the antifungal assay, fungi strains were cultured for 3 days on YPD agar at 30 °C. A yeast suspension of 1 × 10^6 to 5 × 10^6 CFU/mL was prepared from five colonies. These stock suspensions were diluted with yeast nitrogen base (YNB) (Becton Dickinson, 233520) broth to a final concentration of 2.5 × 10^3 CFU/mL. […] Plates were covered and incubated at 35 °C for 36 h without shaking. C. albicans MICs were determined by measuring the absorbance at OD530. […] Fluconazole was used as a positive fungal inhibitor standard for C. albicans and C. neoformans. […] Quality control (QC) of the assays was determined by antimicrobial controls and Z’-factor (using positive and negative controls).

[3] = test system: Cryptococcus neoformans ATCC208821; assay: Antifungal MIC, CO-ADD; format: cell-based; conditions: ATCC208821, Cryptococcus neoformans ATCC208821, mean (n = 2)
Method: as §1

[4] = test system: Pseudomonas aeruginosa PAO1 or ATCC 27853; assay: MIC, broth dilution (CA-SFM); format: cell-based; conditions: mean (n = 3)
[5] = Cytotoxicity assay (resazurin); format: cell-based, human; conditions: human; HEK293 cells; mean (n = 2); highest dose tested 32 μg/mL; read-out: Cytotoxicity (concentration of compound at 50% cytotoxicity, IC50)
[6] = test system: Escherichia coli ATCC 25922; assay: MIC, CO-ADD broth microdilution; format: cell-based; conditions: ATCC25922, mean (n = 2)
[7] = test system: Staphylococcus aureus ATCC 25923 or ATCC 29213; assay: MIC, broth dilution (CA-SFM); format: cell-based; conditions: Staphylococcus aureus ATCC 25923 or ATCC 29213; mean (n = 3); read-out: MIC S. a
[8] = test system: Klebsiella pneumoniae ATCC700603; assay: MIC, CO-ADD broth microdilution; format: cell-based; conditions: mean (n = 2)
human red blood cells = assay: Hemolytic assay; format: cell-based; conditions: mean (n = 2)
Method: Human whole blood was washed three times with 3 volumes of 0.9% NaCl and then resuspended in same to a concentration of 0.5 × 10^8 cells/mL, as determined by manual cell count in a Neubauer hemocytometer. The washed cells were then added to the 384-well compound-containing plates for a final volume of 50 μL. After a 10 min shake on a plate shaker, the plates were then incubated for 1 h at 37 °C. After incubation, the plates were centrifuged at 1000× g for 10 min to pellet cells and debris; 25 μL of the supernatant was then transferred to a polystyrene 384-well assay plate. Hemolysis was determined by measuring the supernatant absorbance at […] (OD405). The absorbance was measured using a Tecan M1000 Pro monochromator plate reader. HC10 and HC50 (concentration at 10% and 50% hemolysis, respectively) were calculated by curve fitting the inhibition values vs. log (concentration) using a sigmoidal dose–response function with variable fitting values for top, bottom and slope.

MRSA ATCC 43300 = assay: MIC, CO-ADD broth microdilution; format: cell-based, Staphylococcus aureus; conditions: Staphylococcus aureus; MRSA ATCC 43300; mean (n = 2); read-out: MIC MRSA

| SMILES | MIC [1] [µM] | MIC [2] [µM] | MIC [3] [µM] | MIC [4] [µM] | MIC [6] [µM] | MIC [7] [µM] | MIC [8] [µM] | MIC (MRSA ATCC 43300) [µM] | IC50 at 20 h [5] [µM] | Hemolysis (HC10, concentration at 10% hemolytic activity) (human red blood cells) [µM] |
| --- | --- | --- | --- | --- | --- | --- | --- | --- | --- | --- |
| O=C(CC(c1ccccc1)c1ccccc1)NCCCNCCCCCCNCCCNC(=O)CC(c1ccccc1)c1ccccc1.O=C(O)C(F)(F)F.O=C(O)C(F)(F)F [Compound 15b, N^1,N^6-Bis(3-(3,3-diphenylpropanamido)propyl)hexane-1,6-diaminium 2,2,2-trifluoroacetate] | > 36.6 | > 36.6 | > 36.6 | 100 | 4.6 | 12.5 | > 36.6 | ≤ 0.29 | > 36.6 | >36.6 |
| O=C(CC(c1ccccc1)c1ccccc1)NCCCNCCCCCCCNCCCNC(=O)CC(c1ccccc1)c1ccccc1.O=C(O)C(F)(F)F.O=C(O)C(F)(F)F [Compound 15c, N^1,N^7-Bis(3-(3,3-diphenylpropanamido)propyl)heptane-1,7-diaminium 2,2,2-trifluoroacetate] | > 36 | > 36 | ≤ 0.28 | 100 | 2.3 | 6.25 | > 36 | ≤ 0.28 | > 36 | >36.0 |
| O=C(CC(c1ccccc1)c1ccccc1)NCCCNCCCCCCCCCCNCCCNC(=O)CC(c1ccccc1)c1ccccc1.O=C(O)C(F)(F)F.O=C(O)C(F)(F)F [Compound 15e, N^1,N^10-Bis(3-(3,3-diphenylpropanamido)propyl)decane-1,10-diaminium 2,2,2-trifluoroacetate] | 2.15 | > 34.4 | > 34.4 | 200 | ≤ 0.27 | 3.13 | > 34.4 | ≤ 0.27 | > 34.4 | >34.4 |
| O=C(CC(c1ccccc1)c1ccccc1)NCCCNCCCCCCCCCCCCNCCCNC(=O)CC(c1ccccc1)c1ccccc1.O=C(O)C(F)(F)F.O=C(O)C(F)(F)F [Compound 15f, N^1,N^12-Bis(3-(3,3-diphenylpropanamido)propyl)dodecane-1,12-diaminium 2,2,2-trifluoroacetate] | 1 | 8.34 | ≤ 0.28 | 200 | 2.1 | 1.56 | > 33.4 | ≤ 0.26 | 5.46 | 1.17 |

More lines, main results first:

| MIC [1] [µM] | MIC [2] [µM] | MIC [3] [µM] | MIC [4] [µM] | MIC [6] [µM] | MIC [7] [µM] | MIC [8] [µM] | MIC (MRSA ATCC 43300) [µM] | SMILES | IC50 at 20 h [5] [µM] | Hemolysis (HC10, concentration at 10% hemolytic activity) (human red blood cells) [µM] |
| --- | --- | --- | --- | --- | --- | --- | --- | --- | --- | --- |
| > 30.6 | > 30.6 | > 30.6 | 480 (≈ 392 µg/mL) | > 30.6 | 24 (≈ 19.6 µg/mL) | > 30.6 | ≤ 0.24 | O=C(CCC(=O)NCCC(c1ccccc1)c1ccccc1)NCCCNCCCCCCNCCCNC(=O)CCC(=O)NCCC(c1ccccc1)c1ccccc1 [Compound 16b, N^1,N^6-Bis(3-(4-((3,3-diphenylpropyl)amino)-4-oxobutanamido)propyl)hexane-1,6-diaminium 2,2,2-trifluroracetate] | > 30.6 | >30.6 |
| > 30.2 | > 30.2 | 30.2 | 480 | > 30.2 | 24 | > 30.2 | ≤ 0.24 | O=C(CCC(=O)NCCC(c1ccccc1)c1ccccc1)NCCCNCCCCCCCNCCCNC(=O)CCC(=O)NCCC(c1ccccc1)c1ccccc1.O=C(O)C(F)(F)F.O=C(O)C(F)(F)F [Compound 16c, N^1,N^7-Bis(3-(4-((3,3-diphenylpropyl)amino)-4-oxobutanamido)propyl)heptane-1,7-diaminium 2,2,2-trifluoroacetate] | > 30.2 | >30.2 |
| > 29.8 | > 29.8 | > 29.8 | 300 | > 29.8 | 12.5 | > 29.8 | ≤ 0.23 | O=C(CCC(=O)NCCC(c1ccccc1)c1ccccc1)NCCCNCCCCCCCCNCCCNC(=O)CCC(=O)NCCC(c1ccccc1)c1ccccc1.O=C(O)C(F)(F)F.O=C(O)C(F)(F)F [Compound 16d, N^1,N^8-Bis(3-(4-((3,3-diphenylpropyl)amino)-4-oxobutanamido)propyl)octane-1,8-diaminium 2,2,2-trifluoroacetate] | > 29.8 | >29.8 |
| 29.1 | 29.1 | ≤ 0.28 | 200 | 14.5 | 12.5 | 29.1 | ≤ 0.23 | O=C(CCC(=O)NCCC(c1ccccc1)c1ccccc1)NCCCNCCCCCCCCCCNCCCNC(=O)CCC(=O)NCCC(c1ccccc1)c1ccccc1.O=C(O)C(F)(F)F.O=C(O)C(F)(F)F [Compound 16e, N^1,N^10-Bis(3-(4-((3,3-diphenylpropyl)amino)-4-oxobutanamido)propyl)decane-1,10-diaminium 2,2,2-trifluoroacetate] | 17.3 | 17.9 |
| > 28.3 | > 28.3 | > 28.3 | 300 (≈ 270 µg/mL) | > 28.3 | 3.13 (≈ 2.82 µg/mL) | > 28.3 | ≤ 0.22 | O=C(CCC(=O)NCCC(c1ccccc1)c1ccccc1)NCCCNCCCCCCCCCCCCNCCCNC(=O)CCC(=O)NCCC(c1ccccc1)c1ccccc1 [Compound 16f, N^1,N^12-Bis(3-(4-((3,3-diphenylpropyl)amino)-4-oxobutanamido)propyl)dodecane-1,12-diaminium 2,2,2-trifluroracetate] | > 28.3 | 3.17 |
| 8.24 | > 33 | < 0.26 | 300 | 1.03 | 6.25 | > 33 | < 0.26 | O=C(NCCCNCCCCNCCCNC(=O)C(c1ccccc1)(c1ccccc1)c1ccccc1)C(c1ccccc1)(c1ccccc1)c1ccccc1.O=C(O)C(F)(F)F.O=C(O)C(F)(F)F [Compound 17a, N^1,N^4-Bis(3-(2,2,2-triphenylacetamido)propyl)butane-1,4-diaminium 2,2,2-trifluoroacetate] | 0.329 | 5.57 |
| 4 | 16 | < 0.25 | 300 | 4 | 6.25 | 32 | < 0.25 | O=C(NCCCNCCCCCCNCCCNC(=O)C(c1ccccc1)(c1ccccc1)c1ccccc1)C(c1ccccc1)(c1ccccc1)c1ccccc1.O=C(O)C(F)(F)F.O=C(O)C(F)(F)F [Compound 17b, N^1,N^6-Bis(3-(2,2,2-triphenylacetamido)propyl)hexane-1,6-diaminium 2,2,2-trifluoroacetate] | ≤ 0.25 | 6.27 |
| 3.95 | 15.8 | 15.8 | 300 | 7.9 | 12.5 | 31.6 | < 0.25 | O=C(NCCCNCCCCCCCNCCCNC(=O)C(c1ccccc1)(c1ccccc1)c1ccccc1)C(c1ccccc1)(c1ccccc1)c1ccccc1.O=C(O)C(F)(F)F.O=C(O)C(F)(F)F [Compound 17c, N^1,N^7-Bis(3-(2,2,2-triphenylacetamido)propyl)heptane-1,7-diaminium 2,2,2-trifluoroacetate] | ≤ 0.247 | 8.16 |
| 7.79 | 15.6 | < 0.24 | 300 | 15.6 | 6.25 | > 31.2 | < 0.24 | O=C(NCCCNCCCCCCCCNCCCNC(=O)C(c1ccccc1)(c1ccccc1)c1ccccc1)C(c1ccccc1)(c1ccccc1)c1ccccc1.O=C(O)C(F)(F)F.O=C(O)C(F)(F)F [Compound 17d, N^1,N^8-Bis(3-(2,2,2-triphenylacetamido)propyl)octane-1,8-diaminium 2,2,2-trifluoroacetate] | ≤ 0.243 | 0.719 |
